Key:
[1] = tested on: HBV (HepG2.117 cell line, inducibly HBV producing); assay: Anti-HBV activity: intracellular HBV DNA by real-time PCR in HepG2.117 cells after 3 days of treatment; type: cell-based, hepatitis B virus; details: Hepatitis B virus, HepG2.117, 72 h, HepG2.117 cells, 3 days of treatment, intracellular HBV DNA by real-time PCR; mean value; read-out: EC50 (μM, mean value)
Procedure, shortened: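 Tet-off HepG2.117; HBV replication induced (no doxycycline); serial compound dilutions, 3 d; intracellular HBV DNA by real-time PCR, HBV-specific primers/probe.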

in vitro = type: cell-based; details: human, HepG2 or HepG2.117 cells, 3-days incubation (unmarked values), ATPlite; mean value
Procedure, shortened: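 Luminescent ATP quantitation served as the viability endpoint following a 3- or 4-day incubation with test compounds.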

SMILES: CC(C)Nc1nc2c(c(=O)n1-c1ccc(S(C)(=O)=O)cc1)CCN(C(=O)c1cc3ccccc3s1)C2 [Compound C182, 7-(1-benzothiophene-2-carbonyl)-3-[4-(methanesulfonyl)phenyl]-2-[(propan-2-yl)amino]-5,6,7,8-tetrahydropyrido[3,4-d]pyrimidin-4(3H)-one]
- EC50 [1]: 3.14 µM
- CC50 at 3 days (in vitro): > 50 µM

SMILES: CC(C)Nc1nc2c(c(=O)n1-c1ccc(Br)cc1)C[C@@H](C)N(C(=O)c1ccc(Cl)c(Cl)c1)C2 [Compound C183, (6R)-3-(4-bromophenyl)-7-(3,4-dichlorobenzoyl)-6-methyl-2-[(propan-2-yl)amino]-5,6,7,8-tetrahydropyrido[3,4-d]pyrimidin-4(3H)-one]
- EC50 [1]: 0.21 µM
- CC50 at 3 days (in vitro): > 50 µM

SMILES: CC(C)Nc1nc2c(c(=O)n1-c1ccc(S(C)(=O)=O)cc1)CCN(C(=O)C1Cc3ccccc3N1)C2 (stereo not shown) [Compound C184, 7-(2,3-dihydro-1H-indole-2-carbonyl)-3-[4-(methanesulfonyl)phenyl]-2-[(propan-2-yl)amino]-5,6,7,8-tetrahydropyrido[3,4-d]pyrimidin-4(3H)-one]
- EC50 [1]: 0.71 µM
- CC50 at 3 days (in vitro): > 50 µM

SMILES: CC(C)Nc1nc2c(c(=O)n1-c1ccc(-c3cn[nH]c3)cc1)CCN(C(=O)c1ccc(Cl)c(Cl)c1)C2 [Compound C186, 7-(3,4-dichlorobenzoyl)-2-[(propan-2-yl)amino]-3-[4-(1H-pyrazol-4-yl)phenyl]-5,6,7,8-tetrahydropyrido[3,4-d]pyrimidin-4(3H)-one]
- EC50 [1]: 0.51 µM
- CC50 at 3 days (in vitro): > 50 µM

SMILES: CC(C)Nc1nc2c(c(=O)n1-c1ccc(-c3ncccn3)cc1)CCN(C(=O)c1ccc(Cl)c(Cl)c1)C2 [Compound C187, 7-(3,4-dichlorobenzoyl)-2-[(propan-2-yl)amino]-3-[4-(pyrimidin-2-yl)phenyl]-5,6,7,8-tetrahydropyrido[3,4-d]pyrimidin-4(3H)-one]
- EC50 [1]: 0.71 µM
- CC50 at 3 days (in vitro): > 45 µM

SMILES: CC(C)Nc1nc2c(c(=O)n1-c1ccc(-c3cncs3)cc1)CCN(C(=O)c1ccc(Cl)c(Cl)c1)C2 [Compound C188, 7-(3,4-dichlorobenzoyl)-2-[(propan-2-yl)amino]-3-[4-(1,3-thiazol-5-yl)phenyl]-5,6,7,8-tetrahydropyrido[3,4-d]pyrimidin-4(3H)-one]
- EC50 [1]: 0.51 µM
- CC50 at 3 days (in vitro): > 50 µM

SMILES: CC(C)Nc1nc2c(c(=O)n1-c1ccc(-c3ccn4ccnc4c3)cc1)C[C@@H](C)N(C(=O)c1ccc(Cl)c(Cl)c1)C2 [Compound C189, (6R)-7-(3,4-dichlorobenzoyl)-3-[4-(imidazo[1,2-a]pyridin-7-yl)phenyl]-6-methyl-2-[(propan-2-yl)amino]-5,6,7,8-tetrahydropyrido[3,4-d]pyrimidin-4(3H)-one]
- EC50 [1]: 0.1 µM
- CC50 at 3 days (in vitro): 9.8 µM

SMILES: CC(C)Nc1nc2c(c(=O)n1-c1ccc(NC3COC3)cc1)C[C@@H](C)N(C(=O)c1ccc(Cl)c(Cl)c1)C2 [Compound C190, (6R)-7-(3,4-dichlorobenzoyl)-6-methyl-3-{4-[(oxetan-3-yl)amino]phenyl}-2-[(propan-2-yl)amino]-5,6,7,8-tetrahydropyrido[3,4-d]pyrimidin-4(3H)-one]
- EC50 [1]: 0.18 µM
- CC50 at 3 days (in vitro): > 50 µM

SMILES: CC(C)Nc1nc2c(c(=O)n1-c1ccc(S(C)(=O)=O)cc1)CCN(C(=O)c1ccc(Cl)c(C(F)(F)F)c1)C2 [Compound C191, 7-[4-chloro-3-(trifluoromethyl)benzoyl]-3-[4-(methanesulfonyl)phenyl]-2-[(propan-2-yl)amino]-5,6,7,8-tetrahydropyrido[3,4-d]pyrimidin-4(3H)-one]
- EC50 [1]: 0.4 µM
- CC50 at 3 days (in vitro): > 50 µM

SMILES: CC(C)Nc1nc2c(c(=O)n1-c1ccc(-c3nccn3C)cc1)C[C@@H](C)N(C(=O)c1ccc(Cl)c(Cl)c1)C2 [Compound C192, (6R)-7-(3,4-dichlorobenzoyl)-6-methyl-3-[4-(1-methyl-1H-imidazol-2-yl)phenyl]-2-[(propan-2-yl)amino]-5,6,7,8-tetrahydropyrido[3,4-d]pyrimidin-4(3H)-one]
- EC50 [1]: 0.13 µM
- CC50 at 3 days (in vitro): 36.1 µM

SMILES: CCc1cc(C(=O)N2CCc3c(nc(NC(C)C)n(-c4ccc(S(C)(=O)=O)cc4)c3=O)C2)ccc1Cl [Compound C193, 7-(4-chloro-3-ethylbenzoyl)-3-[4-(methanesulfonyl)phenyl]-2-[(propan-2-yl)amino]-5,6,7,8-tetrahydropyrido[3,4-d]pyrimidin-4(3H)-one]
- EC50 [1]: 0.62 µM
- CC50 at 3 days (in vitro): > 50 µM

SMILES: CC(C)Nc1nc2c(c(=O)n1-c1ccc(S(C)(=O)=O)cc1)CCN(C(=O)c1ccc(C(F)(F)F)c(Cl)c1)C2 [Compound C194, 7-[3-chloro-4-(trifluoromethyl)benzoyl]-3-[4-(methanesulfonyl)phenyl]-2-[(propan-2-yl)amino]-5,6,7,8-tetrahydropyrido[3,4-d]pyrimidin-4(3H)-one]
- EC50 [1]: 0.55 µM
- CC50 at 3 days (in vitro): > 50 µM

SMILES: CC(C)Nc1nc2c(c(=O)n1-c1ccc(C(N)=O)cc1)C[C@@H](C)N(C(=O)c1ccc(Cl)c(Cl)c1)C2 [Compound C195, 4-[(6R)-7-(3,4-dichlorobenzoyl)-6-methyl-4-oxo-2-[(propan-2-yl)amino]-5,6,7,8-tetrahydropyrido[3,4-d]pyrimidin-3(4H)-yl]benzamide]
- EC50 [1]: 0.16 µM
- CC50 at 3 days (in vitro): > 50 µM

SMILES: CC(C)Nc1nc2c(c(=O)n1-c1ccc(-c3ncc[nH]3)cc1)C[C@@H](C)N(C(=O)c1ccc(Cl)c(Cl)c1)C2 [Compound C196, (6R)-7-(3,4-dichlorobenzoyl)-3-[4-(1H-imidazol-2-yl)phenyl]-6-methyl-2-[(propan-2-yl)amino]-5,6,7,8-tetrahydropyrido[3,4-d]pyrimidin-4(3H)-one]
- EC50 [1]: 0.17 µM
- CC50 at 3 days (in vitro): > 43 µM

SMILES: CC(C)Nc1nc2c(c(=O)n1-c1ccc(C(=O)NCCN)cc1)C[C@@H](C)N(C(=O)c1ccc(Cl)c(Cl)c1)C2 [Compound C197, N-(2-aminoethyl)-4-[(6R)-7-(3,4-dichlorobenzoyl)-6-methyl-4-oxo-2-[(propan-2-yl)amino]-5,6,7,8-tetrahydropyrido[3,4-d]pyrimidin-3(4H)-yl]benzamide]
- EC50 [1]: 1.81 µM
- CC50 at 3 days (in vitro): > 50 µM

SMILES: C[C@@H]1Cc2c(nc(NC3(c4ccncc4)CC3)n(-c3ccc(S(C)(=O)=O)cc3)c2=O)CN1C(=O)c1ccc(Cl)c(Cl)c1 [Compound C198, (6R)-7-(3,4-dichlorobenzoyl)-3-[4-(methanesulfonyl)phenyl]-6-methyl-2-{[1-(pyridin-4-yl)cyclopropyl]amino}-5,6,7,8-tetrahydropyrido[3,4-d]pyrimidin-4(3H)-one]
- EC50 [1]: 3.25 µM
- CC50 at 3 days (in vitro): > 50 µM

SMILES: CC(Nc1nc2c(c(=O)n1-c1ccc(S(C)(=O)=O)cc1)C[C@@H](C)N(C(=O)c1ccc(Cl)c(Cl)c1)C2)C1CC1 (stereo partly drawn) [Compound C199, (6R)-2-[(1-cyclopropylethyl)amino]-7-(3,4-dichlorobenzoyl)-3-[4-(methanesulfonyl)phenyl]-6-methyl-5,6,7,8-tetrahydropyrido[3,4-d]pyrimidin-4(3H)-one]
- EC50 [1]: 0.3 µM
- CC50 at 3 days (in vitro): > 50 µM

SMILES: CC(C)Nc1nc2c(c(=O)n1-c1ccc(N3CC[C@H](O)C3)cc1)C[C@@H](C)N(C(=O)c1ccc(Cl)c(Cl)c1)C2 [Compound C200, (6R)-7-(3,4-dichlorobenzoyl)-3-{4-[(3S)-3-hydroxypyrrolidin-1-yl]phenyl}-6-methyl-2-[(propan-2-yl)amino]-5,6,7,8-tetrahydropyrido[3,4-d]pyrimidin-4(3H)-one]
- EC50 [1]: 0.2 µM
- CC50 at 3 days (in vitro): 35.4 µM

SMILES: CC(C)Nc1nc2c(c(=O)n1-c1ccc(N3CC[C@@H](O)C3)cc1)C[C@@H](C)N(C(=O)c1ccc(Cl)c(Cl)c1)C2 [Compound C201, (6R)-7-(3,4-dichlorobenzoyl)-3-{4-[(3R)-3-hydroxypyrrolidin-1-yl]phenyl}-6-methyl-2-[(propan-2-yl)amino]-5,6,7,8-tetrahydropyrido[3,4-d]pyrimidin-4(3H)-one]
- EC50 [1]: 0.2 µM
- CC50 at 3 days (in vitro): 36.8 µM

SMILES: CC(C)Nc1nc2c(c(=O)n1-c1ccc(N3CC(=O)N(C)C3)cc1)C[C@@H](C)N(C(=O)c1ccc(Cl)c(Cl)c1)C2 [Compound C202, (6R)-7-(3,4-dichlorobenzoyl)-6-methyl-3-[4-(3-methyl-4-oxoimidazolidin-1-yl)phenyl]-2-[(propan-2-yl)amino]-5,6,7,8-tetrahydropyrido[3,4-d]pyrimidin-4(3H)-one]
- EC50 [1]: 0.19 µM
- CC50 at 3 days (in vitro): > 50 µM

SMILES: CC(C)Nc1nc2c(c(=O)n1-c1ccc(C(=O)NCCN3CCOCC3)cc1)C[C@@H](C)N(C(=O)c1ccc(Cl)c(Cl)c1)C2 [Compound C203, 4-[(6R)-7-(3,4-dichlorobenzoyl)-6-methyl-4-oxo-2-[(propan-2-yl)amino]-5,6,7,8-tetrahydropyrido[3,4-d]pyrimidin-3(4H)-yl]-N-[2-(morpholin-4-yl)ethyl]benzamide]
- EC50 [1]: 0.15 µM
- CC50 at 3 days (in vitro): > 50 µM

SMILES: CC(C)Nc1nc2c(c(=O)n1-c1ccc(C(=O)NCCO)cc1)C[C@@H](C)N(C(=O)c1ccc(Cl)c(Cl)c1)C2 [Compound C204, 4-[(6R)-7-(3,4-dichlorobenzoyl)-6-methyl-4-oxo-2-[(propan-2-yl)amino]-5,6,7,8-tetrahydropyrido[3,4-d]pyrimidin-3(4H)-yl]-N-(2-hydroxyethyl)benzamide]
- EC50 [1]: 0.54 µM
- CC50 at 3 days (in vitro): > 50 µM

SMILES: COCCNC(=O)c1ccc(-n2c(NC(C)C)nc3c(c2=O)C[C@@H](C)N(C(=O)c2ccc(Cl)c(Cl)c2)C3)cc1 [Compound C205, 4-[(6R)-7-(3,4-dichlorobenzoyl)-6-methyl-4-oxo-2-[(propan-2-yl)amino]-5,6,7,8-tetrahydropyrido[3,4-d]pyrimidin-3(4H)-yl]-N-(2-methoxyethyl)benzamide]
- EC50 [1]: 0.13 µM
- CC50 at 3 days (in vitro): > 50 µM

— US20230091047A1 (priority 2019, published 2023)
